biological target: T1, human Npt2a (Homo sapiens, UniProt Q06495); assay: Npt2a activity cell based assay, membrane potential dye, CHO T-REx hNpt2a cells; details: doxycycline-induced, depolarization by sodium phosphate influx, average or median values if tested more than once
T1 construct: expressed in transfected cells
T1 sequence (Q06495 1-639): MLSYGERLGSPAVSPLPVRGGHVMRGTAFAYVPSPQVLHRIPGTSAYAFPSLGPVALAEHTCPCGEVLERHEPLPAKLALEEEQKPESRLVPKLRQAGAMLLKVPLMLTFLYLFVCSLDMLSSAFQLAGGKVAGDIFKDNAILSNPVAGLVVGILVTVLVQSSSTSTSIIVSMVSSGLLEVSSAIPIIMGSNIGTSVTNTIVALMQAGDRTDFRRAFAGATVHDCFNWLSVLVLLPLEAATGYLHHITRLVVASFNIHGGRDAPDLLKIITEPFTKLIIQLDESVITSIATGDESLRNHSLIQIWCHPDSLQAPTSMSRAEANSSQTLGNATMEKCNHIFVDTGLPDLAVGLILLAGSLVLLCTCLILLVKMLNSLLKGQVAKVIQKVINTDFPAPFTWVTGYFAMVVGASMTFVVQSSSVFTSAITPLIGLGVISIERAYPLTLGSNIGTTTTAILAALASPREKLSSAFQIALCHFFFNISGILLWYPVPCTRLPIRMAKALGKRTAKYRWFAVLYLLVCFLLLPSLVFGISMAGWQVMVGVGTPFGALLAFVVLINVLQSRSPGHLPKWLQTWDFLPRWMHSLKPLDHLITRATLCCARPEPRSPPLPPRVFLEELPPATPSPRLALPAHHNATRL
In short: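 Doxycycline-induced (0.5 μg/mL, 24 h) CHO T-REx cells were loaded with membrane potential dye in sodium-free NHE buffer (pH 7.4) and exposed to compound (50 μM–1 nM, 5 min, room temperature).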

| Structure (SMILES) | IC50 [µM] |
| --- | --- |
| Cc1nn(-c2cc(Nc3c(C)c(-c4ccc(C#N)cc4)nn3CC3CC3)ncn2)c(C(F)F)c1Cl [Example 154, 4-[5-({6-[4-chloro-5-(difluoromethyl)-3-methyl-1H-pyrazol-1-yl]pyrimidin-4-yl}amino)-1-(cyclopropylmethyl)-4-methyl-1H-pyrazol-3-yl]benzonitrile] | 0.003 |
| CCc1c(-c2ccc(F)cc2)nn(C)c1Nc1cc(-n2nc(C)c3cnccc32)ncn1 [Example 230, N-[4-ethyl-3-(4-fluorophenyl)-1-methyl-1H-pyrazol-5-yl]-6-(3-methyl-1H-pyrazolo[4,3-c]pyridin-1-yl)pyrimidin-4-amine] | 0.83 |
| Cc1cc(C)n(-c2cc(Nc3c(Cl)c(-c4ccc(F)cc4)nn3C)ncn2)n1 [Example 90, N-[4-chloro-3-(4-fluorophenyl)-1-methyl-1H-pyrazol-5-yl]-6-(3,5-dimethyl-1H-pyrazol-1-yl)pyrimidin-4-amine] | 0.133 |
| Cc1nn(-c2cc(Nc3c(Cl)c(-c4ccc(F)cc4)nn3CC3CC3)ncn2)c2cnccc12 [Example 218, N-[4-chloro-1-(cyclopropylmethyl)-3-(4-fluorophenyl)-1H-pyrazol-5-yl]-6-(3-methyl-1H-pyrazolo[3,4-c]pyridin-1-yl)pyrimidin-4-amine] | 0.032 |
| Cc1cc(C)n(-c2cc(Nc3nn(C)c(-c4ccc(C#N)cc4)c3C)ncn2)n1 [Example 118, 4-(3-{[6-(3,5-dimethyl-1H-pyrazol-1-yl)pyrimidin-4-yl]amino}-1,4-dimethyl-1H-pyrazol-5-yl)benzonitrile] | 0.007 |
| Cc1nn(-c2cc(Nc3c(C)c(-c4ccncc4)nn3CC3CC3)ncn2)c(C)c1C(F)(F)F [Example 384, N-[1-(cyclopropylmethyl)-4-methyl-3-(pyridin-4-yl)-1H-pyrazol-5-yl]-6-[3,5-dimethyl-4-(trifluoromethyl)-1H-pyrazol-1-yl]pyrimidin-4-amine] | 0.03 |
| Cc1cc(C(C)(C)O)n(-c2cc(Nc3nn(C)c(-c4ccc(F)cc4)c3C)ncn2)n1 [Example 262, 2-[1-(6-{[5-(4-fluorophenyl)-1,4-dimethyl-1H-pyrazol-3-yl]amino}pyrimidin-4-yl)-3-methyl-1H-pyrazol-5-yl]propan-2-ol] | 0.033 |
| Cc1cc(C(F)F)n(-c2cc(Nc3c(C)c(-c4ccc(Cl)cc4)nn3CC3CC3)ncn2)n1 [Example 313, N-[3-(4-chlorophenyl)-1-(cyclopropylmethyl)-4-methyl-1H-pyrazol-5-yl]-6-[5-(difluoromethyl)-3-methyl-1H-pyrazol-1-yl]pyrimidin-4-amine] | 0.036 |
| Cc1c(Nc2cc(-n3nc(C)c4ccncc43)ncn2)nn(C)c1-c1ccc(C#N)cc1 [Example 228, 4-(1,4-dimethyl-3-{[6-(3-methyl-1H-pyrazolo[3,4-c]pyridin-1-yl)pyrimidin-4-yl]amino}-1H-pyrazol-5-yl)benzonitrile] | 0.21 |
| Cc1nn(-c2cc(Nc3n[nH]c(-c4ccc(C#N)cc4)c3C)ncn2)c(C)c1Cl [Example 137, 4-(3-{[6-(4-chloro-3,5-dimethyl-1H-pyrazol-1-yl)pyrimidin-4-yl]amino}-4-methyl-1H-pyrazol-5-yl)benzonitrile] | 0.071 |
| Cc1nn(-c2cc(Nc3c(C)c(-c4ccc(C#N)cc4)nn3C)ncn2)c(C)c1C(F)(F)F [Example 547, 4-[5-({6-[3,5-dimethyl-4-(trifluoromethyl)-1H-pyrazol-1-yl]pyrimidin-4-yl}amino)-1,4-dimethyl-1H-pyrazol-3-yl]benzonitrile] | 0.029 |
| Cc1nn(-c2cc(Nc3c(C)c(-c4ccc(OC(F)(F)F)cc4)nn3CC3CC3)ncn2)c(C)c1C(C)(C)O [Example 289, 2-{1-[6-({1-(cyclopropylmethyl)-4-methyl-3-[4-(trifluoromethoxy)phenyl]-1H-pyrazol-5-yl}amino)pyrimidin-4-yl]-3,5-dimethyl-1H-pyrazol-4-yl}propan-2-ol] | 0.023 |
| Cc1cc(C(F)F)n(-c2cc(Nc3nn(CC(F)F)c(-c4ccc(C#N)cc4)c3C)ncn2)n1 [Example 251, 4-[1-(2,2-difluoroethyl)-3-({6-[5-(difluoromethyl)-3-methyl-1H-pyrazol-1-yl]pyrimidin-4-yl}amino)-4-methyl-1H-pyrazol-5-yl]benzonitrile] | 0.014 |
| Cc1cc(C(F)F)n(-c2cc(Nc3c(C)c(-c4ccc(C#N)cc4)nn3CC(F)F)ncn2)n1 [Example 234, 4-[1-(2,2-difluoroethyl)-5-({6-[5-(difluoromethyl)-3-methyl-1H-pyrazol-1-yl]pyrimidin-4-yl}amino)-4-methyl-1H-pyrazol-3-yl]benzonitrile] | 0.028 |
| COc1c(C)nn(-c2cc(Nc3nn(C)c(-c4ccc(F)cc4)c3OC(F)F)ncn2)c1C [Example 470, N-[4-(difluoromethoxy)-5-(4-fluorophenyl)-1-methyl-1H-pyrazol-3-yl]-6-(4-methoxy-3,5-dimethyl-1H-pyrazol-1-yl)pyrimidin-4-amine] | 0.003 |
| Cc1nn(-c2cc(Nc3c(C)c(-c4ccc(C#N)cc4)nn3CC3CC3)ncn2)c(C)c1C(C)(C)O [Example 165, 4-[1-(cyclopropylmethyl)-5-({6-[4-(2-hydroxypropan-2-yl)-3,5-dimethyl-1H-pyrazol-1-yl]pyrimidin-4-yl}amino)-4-methyl-1H-pyrazol-3-yl]benzonitrile] | 0.003 |
| CCc1c(Nc2cc(-n3nc(C)c(C(=O)N4CC(F)(F)C4)c3C)ncn2)nn(C)c1-c1ccc(F)cc1 [Example 124, (3,3-difluoroazetidin-1-yl) [1-(6-{[4-ethyl-5-(4-fluorophenyl)-1-methyl-1H-pyrazol-3-yl]amino}pyrimidin-4-yl)-3,5-dimethyl-1H-pyrazol-4-yl]methanone] | 0.155 |
| Cc1cc(C)n(-c2cc(Nc3c(C)c(-c4ccc(C(F)F)cc4)nn3CC3CC3)ncn2)n1 [Example 305, N-{1-(cyclopropylmethyl)-3-[4-(difluoromethyl)phenyl]-4-methyl-1H-pyrazol-5-yl}-6-(3,5-dimethyl-1H-pyrazol-1-yl)pyrimidin-4-amine] | 0.027 |
| CCOC(=O)c1c(C)nn(-c2cc(Nc3c(C)c(-c4ccc(Cl)cc4)nn3C)ncn2)c1C [Example 367, ethyl 1-(6-{[3-(4-chlorophenyl)-1,4-dimethyl-1H-pyrazol-5-yl]amino}pyrimidin-4-yl)-3,5-dimethyl-1H-pyrazole-4-carboxylate] | 0.04 |
| CCc1c(Nc2cc(-n3nc(C)c(-c4nnc(C)o4)c3C)ncn2)nn(C)c1-c1ccc(F)cc1 [Example 271, 6-[3,5-dimethyl-4-(5-methyl-1,3,4-oxadiazol-2-yl)-1H-pyrazol-1-yl]-N-[4-ethyl-5-(4-fluorophenyl)-1-methyl-1H-pyrazol-3-yl]pyrimidin-4-amine] | 0.039 |
| CCc1c(Nc2cc(-n3nc(C)cc3C)ncn2)nn(C)c1-c1ccc(C#N)cc1 [Example 210, 4-(3-{[6-(3,5-dimethyl-1H-pyrazol-1-yl)pyrimidin-4-yl]amino}-4-ethyl-1-methyl-1H-pyrazol-5-yl)benzonitrile] | 0.013 |
| Cc1cc(C)n(-c2cc(Nc3nn(C)c(-c4ccc(F)cc4)c3CN3CCCC3)ncn2)n1 [Example 194, 6-(3,5-dimethyl-1H-pyrazol-1-yl)-N-[5-(4-fluorophenyl)-1-methyl-4-(pyrrolidin-1-ylmethyl)-1H-pyrazol-3-yl]pyrimidin-4-amine] | 1.3 |

Source: US11208400B2, “Substituted 6-(1H-pyrazol-1-yl)pyrimidin-4-amine derivatives and uses thereof” (Bayer Aktiengesellschaft, priority 2016, dated 2021)
